Test results published in ChEMBL document CHEMBL4483862, “Open-source discovery of chemical leads for next-generation chemoprotective antimalarials” (2018).

System: Plasmodium berghei
Assay: Luciferase/luciferin-expressing antifolate-resistant parasites were used to infect a culture of HepG2 cells that were pre-incubated with compounds. Infected hepatocytes emit light due to the luciferase reaction. Assay results are presented as the percent inhibition of light emission compared to control. […]
Type: functional
Settings: sporozoite; for IC90: read-out: LUCIFERASE INFECTION ASSAY - IC90
[1] = read-out: LUCIFERASE INFECTION ASSAY - IC50

## O=C(NCC(=O)N1CCCC1)c1cccc2c3c([nH]c12)CCCCC3
PBLUC_HILL_SLOPE 19.4, PBLUC_R_SQUARED 0.17, read-out: LUCIFERASE INFECTION ASSAY - IC50
  IC50: 3.32 µM
  IC90: 3.72 µM

## CCCNC(=O)C1CN(C(=O)c2oc3ccccc3c2COc2ccccc2)c2ccccc2O1 (centres undefined)
PBLUC_HILL_SLOPE 3.71, PBLUC_R_SQUARED 0.44, read-out: LUCIFERASE INFECTION ASSAY - IC50
  IC50: 6.61 µM
  IC90: > 10 µM

## O=C1NC(c2ccc(N3CCCCC3)cc2)Nc2ccccc21 (centres undefined)
[1]
  IC50: 0.0973 µM
  IC90: 0.743 µM

## CCc1cccc2c(C(=O)COC(=O)C34CC5CC(CC(O)(C5)C3)C4)c[nH]c12
HEPG2TOX_HILL_SLOPE 2.99, HEPG2TOX_R_SQUARED 0.981, PBLUC_HILL_SLOPE 3.51, PBLUC_R_SQUARED 0.785, read-out: LUCIFERASE INFECTION ASSAY - IC50
  IC50: 2.46 µM
  IC90: 4.59 µM

## CCC1c2ccsc2CCN1Cc1cc(=O)n2cc(Cl)ccc2n1 (centres undefined)
[1]
  IC50: > 10 µM
  IC90: > 10 µM

## O=C1N(CN2CCCCC2)c2ccc(Br)cc2C12OCCO2
[1]
  IC50: > 8.99 µM
  IC90: > 8.99 µM

## CCOC(=O)c1ccc2c(c1)nc(-c1ccc(Sc3ccc(C)cc3)c([N+](=O)[O-])c1)n2CC
[1]
  IC50: > 10 µM
  IC90: > 10 µM

## CNc1snc(C)c1C(=O)Nc1ccc2oc(C(C)C)nc2c1
PBLUC_HILL_SLOPE 15, PBLUC_R_SQUARED 0.678, read-out: LUCIFERASE INFECTION ASSAY - IC50
  IC50: 3.08 µM
  IC90: 3.56 µM

## Cc1ccccc1CN1CCN2C=C(C(=O)Nc3cccc(OC(F)(F)F)c3)OC2=NC1=O
FFLUC_HILL_SLOPE 6.71, FFLUC_R_SQUARED 0.0114, read-out: LUCIFERASE INFECTION ASSAY - IC50
  IC50: > 10 µM
  IC90: > 10 µM

## Cn1cc(Br)c(-c2cccc(NC(=O)Nc3ccc(Cl)cc3)c2)n1
HEPG2TOX_HILL_SLOPE 7.05, HEPG2TOX_R_SQUARED 0.913, PBLUC_HILL_SLOPE 7.26, PBLUC_R_SQUARED 0.779, read-out: LUCIFERASE INFECTION ASSAY - IC50
  IC50: > 8.13 µM
  IC90: > 8.13 µM

## CCCn1c(C)cc(/C=C(\C#N)C(=O)Nc2c(C)cccc2C(C)C)c1C
HEPG2TOX_HILL_SLOPE 4.53, HEPG2TOX_R_SQUARED 0.804, PBLUC_HILL_SLOPE 3.44, PBLUC_R_SQUARED 0.565, read-out: LUCIFERASE INFECTION ASSAY - IC50
  IC50: 1.24 µM
  IC90: 2.35 µM

## COC(=O)c1sccc1Oc1ccc(C(F)(F)F)cc1NC(=S)Nc1cc(Cl)cc(Cl)c1
[1]
  IC50: > 6.33 µM
  IC90: > 6.33 µM

## OCc1cccc(-c2ccc3ncc(-c4cccc(Cl)c4)n3n2)c1
HEPG2TOX_HILL_SLOPE 1.23, HEPG2TOX_R_SQUARED 0.98, PBLUC_HILL_SLOPE 1.42, PBLUC_R_SQUARED 0.52, read-out: LUCIFERASE INFECTION ASSAY - IC50
  IC50: 0.582 µM
  IC90: 2.73 µM

## CCC(C(=O)Nc1nc(C)c(Cc2ccc3c(c2)OCO3)s1)c1ccccc1 (centres undefined)
[1]
  IC50: > 10 µM
  IC90: > 10 µM

## OC(CNCc1ccc(F)cc1)(c1ccccc1)c1ccc(F)cc1 (centres undefined)
HEPG2TOX_HILL_SLOPE 7.21, HEPG2TOX_R_SQUARED 0.703, read-out: LUCIFERASE INFECTION ASSAY - IC50
  IC50: > 9.72 µM
  IC90: > 9.72 µM

## O=C(NC1CC1)c1ccc(-c2cnc3cnc(-c4cnn(Cc5ccccc5)c4)cn23)cc1
PBLUC_HILL_SLOPE 12.1, PBLUC_R_SQUARED 0.417, read-out: LUCIFERASE INFECTION ASSAY - IC50
  IC50: 6.99 µM
  IC90: > 7.59 µM

## COCCNC(=O)Cn1nnc(C)c1COc1ccc2ccccc2c1
[1]
  IC50: > 9.31 µM
  IC90: > 9.31 µM

## Cc1occc1C(=O)N/N=C/C=C1\N(C)c2ccccc2C1(C)C
[1]
  IC50: > 10 µM
  IC90: > 10 µM

## CC(C)(C)c1ccc(/C=C2\CCc3c2nc2ccccc2c3C(=O)OCC(=O)NNC(=O)c2ccccc2F)cc1
PBLUC_HILL_SLOPE 2.93, PBLUC_R_SQUARED 0.289, read-out: LUCIFERASE INFECTION ASSAY - IC50
  IC50: 2.58 µM
  IC90: 5.46 µM

## COc1ccc2[nH]c(C(=O)Nc3ccc(F)cc3)c(C)c2c1
HEPG2TOX_HILL_SLOPE 0.946, HEPG2TOX_R_SQUARED 0.313, PBLUC_HILL_SLOPE 15.5, PBLUC_R_SQUARED 0.583, read-out: LUCIFERASE INFECTION ASSAY - IC50
  IC50: 3.72 µM
  IC90: 4.28 µM

## Cc1ccc2nc(C(F)(F)F)c(C(=O)NCc3cc(Cl)cc(Cl)c3)n2c1
[1]
  IC50: > 8.2 µM
  IC90: > 8.2 µM

## COCCNc1cc(C)nc2c(-c3ccc(C)cc3)c(C)nn12
HEPG2TOX_HILL_SLOPE 7.65, HEPG2TOX_R_SQUARED 0.721, PBLUC_HILL_SLOPE 1.1, PBLUC_R_SQUARED 0.545, read-out: LUCIFERASE INFECTION ASSAY - IC50
  IC50: 3.65 µM
  IC90: > 10.6 µM

## CCN(Cc1ccccc1)S(=O)(=O)c1cc(C(=O)N2CCc3ccccc3C2)ccc1OC
PBLUC_HILL_SLOPE 15.3, PBLUC_R_SQUARED 0.425, read-out: LUCIFERASE INFECTION ASSAY - IC50
  IC50: 9.68 µM
  IC90: > 10 µM

## O=C(/C=C/c1ccncc1)Nc1ccc(Oc2ccccc2)cc1
HEPG2TOX_HILL_SLOPE 9.03, HEPG2TOX_R_SQUARED 0.239, PBLUC_HILL_SLOPE 3.67, PBLUC_R_SQUARED 0.501, read-out: LUCIFERASE INFECTION ASSAY - IC50
  IC50: 3.66 µM
  IC90: 6.66 µM

## O=c1c(Cl)c(Cl)cnn1-c1cnc2ccccc2n1
FFLUC_HILL_SLOPE 1.37, FFLUC_R_SQUARED 0.431, HEPG2TOX_HILL_SLOPE 2.28, HEPG2TOX_R_SQUARED 0.959, PBLUC_HILL_SLOPE 0.482, PBLUC_R_SQUARED 0.686, read-out: LUCIFERASE INFECTION ASSAY - IC50
  IC50: 0.149 µM
  IC90: > 11.3 µM

## O=C1OC(CC(=O)c2csc3ccccc23)c2ccccc21 (centres undefined)
[1]
  IC50: 6.16 µM
  IC90: 8.63 µM

## N#CC(C#N)=NNc1ccc(-c2ccccc2)cc1
HEPG2TOX_HILL_SLOPE 3.84, HEPG2TOX_R_SQUARED 0.689, PBLUC_HILL_SLOPE 2.62, PBLUC_R_SQUARED 0.817, read-out: LUCIFERASE INFECTION ASSAY - IC50
  IC50: 4.72 µM
  IC90: > 10 µM

## COc1cc(-c2ccc3ncc(-c4cccc(C(C)=O)c4)n3n2)cc(OC)c1OC
HEPG2TOX_HILL_SLOPE 2.19, HEPG2TOX_R_SQUARED 0.885, PBLUC_HILL_SLOPE 9.54, PBLUC_R_SQUARED 0.57, read-out: LUCIFERASE INFECTION ASSAY - IC50
  IC50: 1.11 µM
  IC90: 1.39 µM

## O=[N+]([O-])c1ccccc1NC(=S)N/N=C/c1ccc(O)c(O)c1
FFLUC_HILL_SLOPE 1.09, FFLUC_R_SQUARED 0.362, HEPG2TOX_HILL_SLOPE 7.32, HEPG2TOX_R_SQUARED 0.0511, PBLUC_HILL_SLOPE 3.36, PBLUC_R_SQUARED 0.569, read-out: LUCIFERASE INFECTION ASSAY - IC50
  IC50: 4.39 µM
  IC90: 8.44 µM

## COc1ccc(-[n+]2c(C)cn3c2CCc2ccccc2-3)cc1
HEPG2TOX_HILL_SLOPE 1.53, HEPG2TOX_R_SQUARED 0.982, PBLUC_HILL_SLOPE 13.1, PBLUC_R_SQUARED 0.299, read-out: LUCIFERASE INFECTION ASSAY - IC50
  IC50: 3.35 µM
  IC90: 3.96 µM

## CN1CCCN(C(=O)C2CCN(c3oc(-c4ccco4)nc3C#N)CC2)c2nc3ccccc3nc21
PBLUC_HILL_SLOPE 11.5, PBLUC_R_SQUARED 0.327, read-out: LUCIFERASE INFECTION ASSAY - IC50
  IC50: 3.86 µM
  IC90: 4.67 µM

## COc1cc(OC)c(C2Nc3cc(Cl)c(S(N)(=O)=O)cc3S(=O)(=O)N2)cc1OC (centres undefined)
[1]
  IC50: > 10 µM
  IC90: > 10 µM

## CCCn1c(N)c(N2CCCCC2)c(=O)n(Cc2nc(N)nc(Nc3ccc(C)cc3)n2)c1=O
[1]
  IC50: 3.72 µM
  IC90: 4.61 µM

## O=C(Nc1c2ccccc2nc2ccccc12)c1[nH]nc2c1CCCC2
HEPG2TOX_HILL_SLOPE 2.71, HEPG2TOX_R_SQUARED 0.934, PBLUC_HILL_SLOPE 11.2, PBLUC_R_SQUARED 0.297, read-out: LUCIFERASE INFECTION ASSAY - IC50
  IC50: 3.34 µM
  IC90: 4.07 µM

## CC1Cc2cc(S(N)(=O)=O)ccc2N1CCCOc1ccc(F)cc1 (centres undefined)
HEPG2TOX_HILL_SLOPE 3.41, HEPG2TOX_R_SQUARED 0.506, PBLUC_HILL_SLOPE 2.13, PBLUC_R_SQUARED 0.616, read-out: LUCIFERASE INFECTION ASSAY - IC50
  IC50: 6.18 µM
  IC90: > 10 µM

## Cc1ccc(C(=O)Nc2nc(-c3ccccn3)cs2)cc1S(=O)(=O)N1CCOCC1
HEPG2TOX_HILL_SLOPE 1.67, HEPG2TOX_R_SQUARED 0.851, PBLUC_HILL_SLOPE 9.71, PBLUC_R_SQUARED 0.0304, read-out: LUCIFERASE INFECTION ASSAY - IC50
  IC50: 7.83 µM
  IC90: 9.81 µM

## FC(F)(F)c1cccc(-c2ccc3ncc(-c4ccc5c(c4)OCO5)n3n2)c1
[1]
  IC50: > 10 µM
  IC90: > 10 µM

## CN1C/C(=C\c2ccc(Cl)cc2)C(=O)/C(=C/c2ccc(Cl)cc2)C1
[1]
  IC50: 7 µM
  IC90: > 9.21 µM

## CNc1nc2cnc(Nc3cccc(OC(F)(F)F)c3)cc2n1CCOC
HEPG2TOX_HILL_SLOPE 6.78, HEPG2TOX_R_SQUARED 0.0669, read-out: LUCIFERASE INFECTION ASSAY - IC50
  IC50: > 10 µM
  IC90: > 10 µM

## CC(Sc1nc(-c2ccccc2)c(-c2ccccc2)o1)C(=O)NCc1ccco1 (centres undefined)
HEPG2TOX_HILL_SLOPE 0.891, HEPG2TOX_R_SQUARED 0.604, PBLUC_HILL_SLOPE 2.26, 2.77, PBLUC_R_SQUARED 0.745, 0.857, read-out: LUCIFERASE INFECTION ASSAY - IC50
  IC50: 5.29 µM
  IC90: 8.62 µM

## COc1cc(OC)cc(-c2cc3c(Nc4cccc(S(C)(=O)=O)c4)nccc3n2C)c1
PBLUC_HILL_SLOPE 2.63, PBLUC_R_SQUARED 0.0611, read-out: LUCIFERASE INFECTION ASSAY - IC50
  IC50: 6.92 µM
  IC90: > 10 µM

## CC(C)(C)c1cc(C(=O)Nc2ccccc2)n(Cc2ccc(Cl)cc2Cl)n1
PBLUC_HILL_SLOPE 3.9, PBLUC_R_SQUARED 0.166, read-out: LUCIFERASE INFECTION ASSAY - IC50
  IC50: 5.99 µM
  IC90: > 8.2 µM
